Row | melting point [°C] | SMILES
1 | 198 to 200 | C[C@H](OC(=O)c1ccc(C(=O)Nc2cc([Si](C)(C)C)cc([Si](C)(C)C)c2)cc1)C(=O)O
2 | 185.5 to 186.5 | CC1(C)CCC(C)(C)c2cc(NC(=O)c3ccc(C=O)cc3)ccc21 [Example 23, 4-Formyl-N-(5,6,7,8-tetrahydro-5,5,8,8-tetramethyl-2-naphthyl)benzamide]
3 | 226 to 227 | CC1(C)CCC(C)(C)c2cc(NC(=O)c3ccc(/C=C/C(=O)O)cc3)ccc21 [Example 24, 4-[(5,6,7,8-Tetrahydro-5,5,8,8-tetramethyl-2-naphthyl)carbamoyl]cinnamic acid]

Source: patent US8633335B2, “Retinoid prodrug compound” (Research Founation Itsuu Laboratory, priority 2007, dated 2014)
